Source: PMC11452651 (Nature Communications, 2024)

Key:
[1] = target: p38α (Homo sapiens, UniProt Q16539); experiment: Fluorescence polarization; type: binding; details: p38 Kiapp
[2] = target: JNK1 (Homo sapiens, UniProt P45983); experiment: Fluorescence polarization; type: binding; details: JNK1 Kiapp
[3] = tested on: AP-1 promoter mediated transcription; type: cell-based; details: 1 μM, + PMA, 6 h
[4] = target: ERK2 (Homo sapiens, UniProt P28482); experiment: Fluorescence polarization; type: binding; details: ERK2 Kiapp, Table 2, different electron withdrawing groups at C2 or cyclopentenone scaffold
[5] = Table 2, different electron withdrawing groups at C2 or cyclopentenone scaffold

p38α, sequence (Q16539 whole entry): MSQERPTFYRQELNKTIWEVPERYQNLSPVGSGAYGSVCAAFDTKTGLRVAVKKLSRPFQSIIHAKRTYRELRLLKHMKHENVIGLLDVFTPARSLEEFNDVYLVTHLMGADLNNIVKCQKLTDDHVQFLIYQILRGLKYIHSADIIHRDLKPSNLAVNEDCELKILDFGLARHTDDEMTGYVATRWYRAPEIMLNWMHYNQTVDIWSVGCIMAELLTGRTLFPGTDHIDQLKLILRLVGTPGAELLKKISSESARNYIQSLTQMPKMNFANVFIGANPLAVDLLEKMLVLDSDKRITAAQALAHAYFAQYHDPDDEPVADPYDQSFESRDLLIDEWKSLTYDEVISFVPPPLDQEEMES
JNK1, sequence (P45983 whole entry): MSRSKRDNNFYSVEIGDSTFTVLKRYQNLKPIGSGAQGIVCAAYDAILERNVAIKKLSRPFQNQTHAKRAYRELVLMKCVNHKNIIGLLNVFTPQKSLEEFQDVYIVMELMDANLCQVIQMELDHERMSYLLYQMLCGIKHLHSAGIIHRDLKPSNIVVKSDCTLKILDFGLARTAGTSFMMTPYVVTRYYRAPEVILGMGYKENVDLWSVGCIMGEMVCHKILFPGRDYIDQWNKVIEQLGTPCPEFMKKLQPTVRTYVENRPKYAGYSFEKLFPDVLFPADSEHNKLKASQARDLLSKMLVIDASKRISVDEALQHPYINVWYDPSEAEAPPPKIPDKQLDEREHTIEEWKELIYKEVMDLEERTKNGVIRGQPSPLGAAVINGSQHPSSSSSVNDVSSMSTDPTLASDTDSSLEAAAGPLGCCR
ERK2, sequence (P28482 whole entry): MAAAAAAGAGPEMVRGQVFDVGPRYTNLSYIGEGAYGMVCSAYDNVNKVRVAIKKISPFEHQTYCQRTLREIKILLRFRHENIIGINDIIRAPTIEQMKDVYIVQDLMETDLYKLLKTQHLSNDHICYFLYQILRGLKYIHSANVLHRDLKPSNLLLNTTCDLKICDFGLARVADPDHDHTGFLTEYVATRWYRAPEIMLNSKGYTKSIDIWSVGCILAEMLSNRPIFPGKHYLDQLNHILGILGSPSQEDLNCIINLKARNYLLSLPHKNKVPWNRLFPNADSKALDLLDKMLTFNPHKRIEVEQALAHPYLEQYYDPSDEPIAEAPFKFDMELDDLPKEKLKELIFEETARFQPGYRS

Ki ([1]; Table 4, C4-extended compounds) [µM]	Ki ([2]; Table 4, C4-extended compounds) [µM]	Ki [4] [µM]	Ki [1, 5] [µM]	Ki [2, 5] [µM]	Compound	effect on AP-1 mediated transcription [3]
1.1 ± 0.1	2.4 ± 0.3				C#CCCOC(=O)[C@]1(C)C=C(C(=O)OC(C)(C)C)C(=O)CC1 [29S]	
2.8 ± 0.7	8.8 ± 2.6				Cc1cc(-c2cccc(-n3cc(COC(=O)[C@]4(C)C=C(C(=O)OC(C)(C)C)C(=O)CC4)nn3)c2)c(C)c2c1CNCC2 [33S]	
					Oc1ccc(-c2nc(-c3ccncc3)c(-c3ccc(F)cc3)[nH]2)cc1 [SB202190]	attenuate
					O=C(Nc1ccc2[nH]nc(-c3ccncc3)c2c1)[C@@H]1CCN(CC(=O)N2CCN(c3ccc(-c4ncccn4)cc3)CC2)C1 [SCH772984]	attenuate
		136 ± 14.1	28 ± 2.4	> 200	COC(=O)C1=CC(C)(C)CC1=O [compound 25]	
		169 ± 8.7	27.4 ± 3.3	> 200	CC1(C)C=C(C(=O)OC(C)(C)C)C(=O)C1 [compound 26]	
